Experimental data published in PMC6367500, “18β-glycyrrhetyl-3-O-sulfate would be a causative agent of licorice-induced pseudoaldosteronism” (Scientific Reports, 2019).

Legend:
[1] = Plasma and urine levels of GA metabolites in SD rats orally treated with GA (LC-MS/MS); assay type: in vivo; conditions: GA 0.20 g/kg orally; for concentration at 12 h: female, SD (Sprague-Dawley), rat, plasma, po, 0.2 g/kg
Procedure: (§1) Then, bile samples were collected for 4 h (E).
(§2) Female SD rats or EHBRs (9-week-old) were anesthetized by an intraperitoneal (i.p.) injection of urethane (1 g/kg) and their jugular veins were exposed. […] Feces were homogenized in phosphate-buffered saline (PBS; 0.15 M, pH 7.2), centrifuged (1.2 × 10^4 g, 10 min), and the supernatants were collected. After 1 week as a washout period, female SD rats were anesthetized by an i.p. injection of urethane (1 g/kg) and their biliary tract was cannulated. […] Aliquots (10 µl) of plasma, urine, homogenate of feces, or bile were mixed with 20 µl of subtilisin (0.91 U/ml) and incubated at 37 °C for 30 min, followed by the addition of 70 µl of astragaloside IV solution (1 µg/ml in ethanol containing 0.5% formic acid, used as internal standard), and kept at −20 °C for 30 min.

[2] = Fecal excretion of GA metabolites in SD rats injected i.v. with GA; assay type: in vivo; conditions: GA 0.2 mg/kg i.v.
Procedure: as §1, §2

[3] = tested on: anti-3MGA-mAb; assay: Competitive ELISA using anti-3MGA-mAb; assay type: binding; conditions: specificity to 3MGA calibrated to 100%, n = 1
Procedure: Figure 5 Dot-blot analysis and ELISA detection range of GL metabolites using anti-3MGA-monoclonal antibody (mAb). GL metabolites (1 µg each) were spotted on a PES membrane, and colored using an anti-3MGA-mAb (A). Competitive ELISA using anti-3MGA-mAb for GL metabolites was performed. Data are represented from a single analysis (n = 1) (B). […] Data are represented as mean ± S.D. (n = 3). Two-way ANOVA indicated a significant difference between GA and 3 (F1,36 = 4441, P < 0.001), concentrations (F8,36 = 315, P < 0.001), and their interactions (F8,36 = 281, P < 0.001). The calibrated line for the absorbance-concentration profile of 3 was calculated by the linear least-squares method, and the regression formula is shown in graph (C).
When the specificity of the mAb to 3MGA was calibrated to 100%, the cross-reactivity for GL, GA, 1, 2, and 3 was 0.23%, 2.2%, 4.8%, 4.0%, and 23%, respectively. […] We confirmed the selectivity of the anti-3MGA-mAb in discriminating between 3 and GA and established the detectable measurement range for 3 in this ELISA system.
3MGA-HSA (1 µg/ml in 50 mM carbonate buffer, pH 9.6) was added into a 96-well plate (Nagel Nunc, Penfield, NY, USA) (100 µl in a well) and incubated at 37 °C for 1 h. After the removal of 3MGA-HSA, the wells were washed three times with T-PBS (200 µl in a well). The wells were incubated with 300 µl in a well of 5% skim milk at 4 °C overnight. After the wells had been washed with T-PBS three times, the sample solution diluted with Can Get Signal® Solution 1 (Toyobo Co., Ltd., Osaka, Japan) (50 µl in a well) and anti-3MGA-mAb (1:4,000 dilution with Can Get Signal® Solution 1) (50 µl in a well) were added to the wells, and the plate was incubated at 37 °C for 1 h. After the wells had been washed with T-PBS three times, HRP-labeled goat anti-mouse IgG (Fc specific) antibody (Sigma, 1:20,000 dilution with Can Get Signal® Solution 2) was added into the wells (100 µl in a well) and the plate was incubated at 37 °C for 1 h. Next, the wells were washed with T-PBS three times and the substrate solution (3,3′,5,5′-tetramethylbensidine, TMB solution; Fujifilm Wako Pure Chemical Corporation, Osaka, Japan) was added to the wells (100 µl in a well), followed by incubation at room temperature for 5 min. Then, the stop solution (0.5 M sulfuric acid) was added to the wells (100 µl in a well) and the optical density was measured at 450 nm/630 nm.

[4] = tested on: rat kidney slices; assay: Uptake into rat kidney slices from pooled EHBR plasma; assay type: in vitro ADME, SD rats; conditions: pH 5.5, 2 h
Procedure: Kidney slices were prepared from SD rats and incubated with the pooled plasma, the pH of which pH was adjusted to 5.5 at 4 °C or 37 °C for 2 h. Figure 4A–C show the amounts of 2, 3, and GA accumulated in the kidney slices.
Figure 4 Uptake of 2 and 3 into rat kidney slices (A–C) or into MDCK II cells stably expressing OAT1 or OAT3 (D–F). Female EHBRs were orally treated with GA (200 mg/kg), and their plasma samples were collected […] after the treatment. The concentrations of compounds 2, 3, and GA in the plasma samples of EHBRs were 7.8, 11.5, and 7.0 µM, respectively. Kidneys were collected from normal SD rats, and the kidney slices were incubated with the plasma samples of EHBRs at 37 °C or 4 °C for 2 h (A–C). MDCK II cells stably expressing OAT1 or OAT3 were incubated with the plasma samples of EHBRs at 37 °C for 15 min (D–F). Then, the concentrations of compounds 2, 3, and GA in kidney slices or the cells were measured by LC-MS/MS. Data are expressed as mean ± S.E. (n = 3 for (C, D), and (E); n = 6 for (A, B), and F). *P < 0.05 and **P < 0.01 vs 4 °C group by Student’s t-test for (A–C), and vs mock cells by Dunnett’s multiple t-test for (D–F).
Uptake studies using rat kidney slices and cells stably expressing OAT1 and OAT3 were conducted with the same protocol as in our previous study. We used the same pooled plasma of female EHBRs orally treated with GA for 12 h as in our previous study.

[5] = Binding to serum albumin by ultrafiltration of pooled EHBR plasma; conditions: female, EHBR (Eisai hyperbilirubinuria rat), oral, 200 mg/kg

SMILES | amount in accumulated urine collected 12 h after oral treatment [1] | detection in feces collected for 24 h [2] | cross-reactivity of anti-3MGA-mAb [3] [%] | time of plasma peak after oral treatment [1] [h] | concentration at 12 h [1] [µM] | uptake by kidney slices at 37 °C compared with 4 °C [4] | concentration at 12 h ([5]; plasma ultrafiltrate) [µM] | concentration at 12 h ([5]; plasma) [µM]
CC1(C)[C@@H](O[C@@H]2O[C@H](C(=O)O)[C@@H](O)[C@H](O)[C@H]2O)CC[C@]2(C)[C@H]3C(=O)C=C4[C@@H]5C[C@@](C)(C(=O)O)CC[C@]5(C)CC[C@@]4(C)[C@]3(C)CC[C@@H]12 [3MGA, 3-monoglucuronyl glycyrrhetinic acid, reference compound] | below detectable levels | not found | 100 |  |  |  |  | 
CC1(C)[C@@H](O)CC[C@]2(C)[C@H]3C(=O)C=C4[C@@H]5C[C@@](C)(C(=O)O)CC[C@]5(C)CC[C@@]4(C)[C@]3(C)CC[C@@H]12 [GA, glycyrrhetinic acid, reference compound] |  |  | 2.2 | 1 | 4.7 | not different | < 0.016 | 7
CC1(C)[C@@H](OS(=O)(=O)O)CC[C@]2(C)[C@H]3C(=O)C=C4[C@@H]5C[C@@](C)(C(=O)O[C@@H]6O[C@H](C(=O)O)[C@@H](O)[C@H](O)[C@H]6O)C[C@H](O)[C@]5(C)CC[C@@]4(C)[C@]3(C)CC[C@@H]12 [compound 1, 22α-hydroxy-18β-glycyrrhetyl-3-O-sulfate-30-glucuronide] | below detectable levels | not found | 4.8 |  |  |  |  | 
CC1(C)[C@@H](OS(=O)(=O)O)CC[C@]2(C)[C@H]3C(=O)C=C4[C@@H]5C[C@@](C)(C(=O)O)C[C@H](O)[C@]5(C)CC[C@@]4(C)[C@]3(C)CC[C@@H]12 [compound 2, 22α-hydroxy-18β-glycyrrhetyl-3-O-sulfate] | below detectable levels | found | 4.0 |  |  | significantly higher | < 0.0032 | 7.8
CC1(C)[C@@H](OS(=O)(=O)O)CC[C@]2(C)[C@H]3C(=O)C=C4[C@@H]5C[C@@](C)(C(=O)O)CC[C@]5(C)CC[C@@]4(C)[C@]3(C)CC[C@@H]12 [compound 3, 18β-glycyrrhetyl-3-O-sulfate] | 0.03 nmol | found | 23 |  | 0.3 | significantly higher | < 0.0032 | 11.5
